Molecules are shown by their SMILES. Read-outs that look alike come from different tables or passages of the source.

For the test, the target named is T1, GRK6, recombinant full-length GST-tagged human protein (Homo sapiens, UniProt P43250).
T1 construct: GRK6, recombinant full-length GST-tagged human protein; GST
In words: GRK6 IC50 determination (8-point concentration-response). The class given is biochemical. The text has this:
Two hundred forty compounds were further characterized by determining IC50 values in a GRK6 assay. This screen has been previously described in WO 2013/063458, which is incorporated by reference in its entirety herein.

The mark [1] stands for this setting: 20 nM GRK6, 12 μM ATP (Km), 1 μM Peptide 216, 7 h incubation.

T1 sequence (P43250 whole entry): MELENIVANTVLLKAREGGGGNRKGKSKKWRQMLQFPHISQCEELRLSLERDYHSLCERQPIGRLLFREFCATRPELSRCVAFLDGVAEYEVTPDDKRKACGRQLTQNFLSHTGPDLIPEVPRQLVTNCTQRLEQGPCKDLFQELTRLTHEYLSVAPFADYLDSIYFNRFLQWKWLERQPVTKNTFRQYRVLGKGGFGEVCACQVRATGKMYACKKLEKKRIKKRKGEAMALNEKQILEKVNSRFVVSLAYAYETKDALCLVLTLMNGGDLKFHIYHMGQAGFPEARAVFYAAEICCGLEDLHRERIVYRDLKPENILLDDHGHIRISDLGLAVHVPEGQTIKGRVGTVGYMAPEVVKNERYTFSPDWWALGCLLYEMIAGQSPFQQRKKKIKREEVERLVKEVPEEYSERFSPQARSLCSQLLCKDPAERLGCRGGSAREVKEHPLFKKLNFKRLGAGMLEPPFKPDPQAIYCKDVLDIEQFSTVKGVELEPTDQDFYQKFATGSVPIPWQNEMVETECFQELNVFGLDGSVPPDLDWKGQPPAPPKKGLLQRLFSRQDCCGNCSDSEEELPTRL

The IC50 is the concentration at which inhibition is half-maximal. As to `O=C(O)CSc1nnc(-c2cccc(Cn3cccn3)c2)[nH]1` [Compound 159], under setting [1], the IC50 worked out at 16200 nM.
On to `Cc1nn(C)cc1-c1cc(-c2ccc3ccccc3c2)cc(-c2nnc(SCC(=O)O)[nH]2)c1` [Compound 57], for which the IC50 is 748 nM.
On to `COc1ccc(-c2nnc(SCC(=O)O)[nH]2)c(O)c1` [Compound 169], for which the IC50 under setting [1] came out at 20900 nM.
On to `O=C(O)CSc1nnc(-c2cc(-c3ccc4scnc4c3)cc([N+](=O)[O-])c2)[nH]1` [Compound 20], for which the IC50 came out at 184 nM.
In the case of `CNC(=O)c1ccc(-c2cc(-c3nnc(SCC(=O)O)[nH]3)cc([N+](=O)[O-])c2)cc1` [Compound 45], the IC50 was 440 nM.
Take `CN(C)Cc1ccc(-c2nnc(SCC(=O)O)[nH]2)cc1` [Compound 184]: under setting [1], the IC50 came out at 40000 nM.
Take `CN(C)c1ccc(-c2cc(-c3nnc(SCC(=O)O)[nH]3)cc([N+](=O)[O-])c2)cc1` [Compound 52]: the IC50 amounted to 518 nM.
For the molecule `COc1cccc(-c2nnc(SCC(=O)O)[nH]2)c1` [Compound 121], the IC50 under setting [1] worked out at 5850 nM.
As for `COc1ccncc1-c1cc(-c2ccc3ccccc3c2)cc(-c2nnc(SCC(=O)O)[nH]2)c1` [Compound 36], the IC50 is 352 nM.
As for `COc1cc(F)c(-c2nnc(SCC(=O)O)[nH]2)c(F)c1` [Compound 181], under setting [1], the IC50 was determined as 38500 nM.
Turning to `O=C(O)CSc1nnc(-c2ccc(-c3ccccc3)cc2)[nH]1` [Compound 133], the IC50 under setting [1] amounted to 7370 nM.
Same read-out and setting: the result for `COc1cc(-c2nnc(SCC(=O)O)[nH]2)cc(OC)c1O` [Compound 140] reads 8830 nM.
In the case of `O=C(O)CSc1nnc(-c2cc(-c3cc[nH]n3)cc([N+](=O)[O-])c2)[nH]1` [Compound 78], the IC50 was determined as 742 nM.
Still for that read-out and setting: the result for `Cc1cncc(-c2cc(-c3ccc4ccccc4c3)cc(-c3nnc(SCC(=O)O)[nH]3)c2)c1` [Compound 34] reads 349 nM; that for `Cc1cn(C)c2ccc(-c3cc(-c4nnc(SCC(=O)O)[nH]4)cc([N+](=O)[O-])c3)cc12` [Compound 230], 150 nM; that for `Cc1c(-c2cc(-c3nnc(SCC(=O)O)[nH]3)cc([N+](=O)[O-])c2)ccc2[nH]c(C(N)=O)cc12` [Compound 235], 358 nM.
Turning to `O=C(O)CSc1nnc(-c2ccc(N3CCCC3=O)cc2)[nH]1` [Compound 157], the IC50 under setting [1] amounted to 15400 nM.
For `COc1cc(-c2nnc(SCC(=O)O)[nH]2)cc(OC)c1OC` [Compound 137], the IC50 under setting [1] was 8230 nM.
As to `O=C(O)CSc1nnc(-c2cc(-c3cnn(Cc4ccccc4)c3)cc([N+](=O)[O-])c2)[nH]1` [Compound 72], the IC50 is 141 nM.
The same measure, in the same setting: the result for `Cc1noc(C)c1-c1cc(-c2ccc3ccccc3c2)cc(-c2nnc(SCC(=O)O)[nH]2)c1` [Compound 65] reads 1020 nM.
On the same count and under the same terms, as for `CC(C)(O)c1ccc(-c2cc(-c3nnc(SCC(=O)O)[nH]3)cc([N+](=O)[O-])c2)cc1` [Compound 61], the figure is 786 nM; as for `CS(=O)(=O)Nc1cccc(-c2cc(-c3nnc(SCC(=O)O)[nH]3)cc([N+](=O)[O-])c2)c1` [Compound 32], 300 nM.
The same measure, in the same setting: as for `O=C(O)CSc1nnc(-c2cc(-c3ccc4[nH]c(-c5ccccc5)cc4c3)cc([N+](=O)[O-])c2)[nH]1` [Compound 33, 2-((3-(3-nitro-5-(2-phenyl-1H-indol-5-yl)phenyl)-1H-1,2,4-triazol-5-yl)thio)acetic acid], the figure is 302 nM; as for `O=C(O)CSc1nnc(-c2cc(-c3ccc(O)cc3)cc([N+](=O)[O-])c2)[nH]1` [Compound 22], 187 nM.
As for `COc1cc(-c2nnc(SCC(=O)O)[nH]2)ccc1OC(C)=O` [Compound 144], the IC50 under setting [1] came out at 9900 nM.
Same read-out and setting: as for `O=C(O)CSc1nnc(-c2cccc(F)c2F)[nH]1` [Compound 145], the figure is 10700 nM.
In the case of `O=C(O)CSc1nnc(-c2cccc3cc[nH]c23)[nH]1` [Compound 153], the IC50 is 13400 nM.
Same read-out and setting: the result for `O=C(O)CSc1nnc(-c2cc(-c3ccc(C(F)(F)F)nc3)cc(-c3ccc4ccccc4c3)c2)[nH]1` [Compound 70] reads 2730 nM; that for `COc1cncc(-c2cc(-c3ccc4ccccc4c3)cc(-c3nnc(SCC(=O)O)[nH]3)c2)c1` [Compound 46], 461 nM.
With `CS(=O)(=O)c1cccc(-c2nnc(SCC(=O)O)[nH]2)c1` [Compound 124], under setting [1], the IC50 is 6360 nM.
On to `Cc1c(-c2cc(-c3ccc4ccccc4c3)cc(-c3nnc(SCC(=O)O)[nH]3)c2)cnn1C` [Compound 38], for which the IC50 came out at 376 nM.
The same measure, in the same setting: as for `Cn1ccc2cc(-c3cc(-c4n[nH]c(SCC(=O)O)n4)cc([N+](=O)[O-])c3)cc(Cl)c21` [Compound 229], the figure is 114 nM.
As for `O=C(O)CSc1nnc(-c2cccc(C(F)(F)F)c2)[nH]1` [Compound 101], under setting [1], the IC50 came out at 3020 nM.
The same measure, in the same setting: the result for `O=C(O)CSc1nnc(-c2cccc(N3CCCCC3)c2)[nH]1` [Compound 187] reads 51800 nM; that for `Cc1cc(C=O)c(O)c(-c2nnc(SCC(=O)O)[nH]2)c1` [Compound 185], 45300 nM.
`COc1cc(Cl)cc(-c2cc(-c3nnc(SCC(=O)O)[nH]3)cc([N+](=O)[O-])c2)c1` [Compound 14]: the IC50 was determined as 136 nM.
Regarding `CNC(=O)c1cccc(NC(=O)c2cccc(-c3nnc(SCC(=O)O)[nH]3)c2)c1` [Compound 167], the IC50 turned out to be 20400 nM.
Still for that read-out and setting: as for `CN1CCOc2cc(-c3cc(-c4nnc(SCC(=O)O)[nH]4)cc([N+](=O)[O-])c3)ccc21` [Compound 29], the figure is 269 nM; as for `NC(=O)c1cc2cc(-c3cc(-c4n[nH]c(SCC(=O)O)n4)cc([N+](=O)[O-])c3)ccc2[nH]1` [Compound 228], 101 nM.
As for `O=C(O)CSc1nnc(-c2ccc(OC3CCNCC3)cc2)[nH]1` [Compound 182], the IC50 under setting [1] came to 40000 nM.
Turning to `O=C(O)CSc1nnc(-c2cc(-c3ccc4cc[nH]c4c3)cc([N+](=O)[O-])c2)[nH]1` [Compound 12], the IC50 was found to be 122 nM.
On the same count and under the same terms, the result for `Cc1ncc(-c2cc(-c3ccc4ccccc4c3)cc(-c3nnc(SCC(=O)O)[nH]3)c2)cn1` [Compound 44] reads 437 nM.
As for `O=C(O)CSc1nnc(-c2cc(-c3cccc(O)c3)cc([N+](=O)[O-])c2)[nH]1` [Compound 24], the IC50 is 212 nM.
On the same count and under the same terms, as for `O=C(O)CSc1nnc(-c2ccc3c(c2)OCCO3)[nH]1` [Compound 154], the figure is 13400 nM.
Consider `COc1ccc(-c2nnc(SCC(=O)O)[nH]2)cc1C` [Compound 118], for which the IC50 under setting [1] is 4990 nM.
Consider `Cc1ccc(-c2nnc(SCC(=O)O)[nH]2)c(O)c1` [Compound 129], for which the IC50 under setting [1] turned out to be 6880 nM.
In the case of `COc1cccc(NC(=O)c2cccc(-c3nnc(SCC(=O)O)[nH]3)c2)c1` [Compound 151], the IC50 is 12900 nM.
As for `Cc1ccc(O)c(-c2nnc(SCC(=O)O)[nH]2)c1` [Compound 99], the IC50 under setting [1] was found to be 2710 nM.
For `COc1cc(-c2nnc(SCC(=O)O)[nH]2)ccc1F` [Compound 114], the IC50 is 4620 nM.
For `Cn1ccc2cc(-c3cc(-c4nnc(SCC(=O)O)[nH]4)cc(C(F)(F)F)c3)ccc21` [Compound 239], the IC50 stood at 729 nM.
Turning to `O=C(O)CSc1nnc(-c2cccc(F)c2)[nH]1` [Compound 115], the IC50 under setting [1] turned out to be 4700 nM.
Regarding `N#CCc1cc(-c2ccc3ccccc3c2)cc(-c2nnc(SCC(=O)O)[nH]2)c1` [Compound 18], the IC50 was 178 nM.
For the molecule `N#Cc1cccc(-c2cccc(-c3nnc(SCC(=O)O)[nH]3)c2)c1` [Compound 64], the IC50 under setting [1] was 919 nM.
Regarding `O=C(O)CSc1nnc(-c2cc(-c3cnn(-c4cccc(Cl)c4)c3)cc([N+](=O)[O-])c2)[nH]1` [Compound 71], the IC50 is 131 nM.
The same measure, in the same setting: the result for `O=C(O)CSc1nnc(-c2cc(-c3ccc4[nH]cnc4c3)cc([N+](=O)[O-])c2)[nH]1` [Compound 26] reads 249 nM.
For `O=C(O)CSc1nnc(-c2cccc([N+](=O)[O-])c2)[nH]1` [Compound 92], under setting [1], the IC50 worked out at 1400 nM.
Take `O=C(O)CSc1nnc(-c2cc(NC(=O)c3ccoc3)cc(-c3ccc4ccccc4c3)c2)[nH]1` [Compound 67]: the IC50 was found to be 1310 nM.
With `Cc1c(-c2cc(-c3nnc(SCC(=O)O)[nH]3)cc([N+](=O)[O-])c2)cnn1C` [Compound 83], the IC50 is 797 nM.

The values above are taken from patent publication US20170050939A1, “SMALL MOLECULE INHIBITORS OF G PROTEIN COUPLED RECEPTOR 6 KINASE POLYPEPTIDES” (Mayo Foundation for Medical Education and Research, priority 2014, published 2017).
